Data published in PubChem BioAssay (NCI).
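Cells were grown in 96-well plates and exposed to each compound for 48 hours at five concentrations; endpoints were interpolated linearly between bracketing concentrations, or set to the highest concentration if not reached. At the GI50, growth is halved. TGI: concentration producing complete growth inhibition.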

Tests used:
Assay in all cases: NCI tumour cell line growth inhibition, 48 h
[1] = test system: MDA-MB-435
[2] = test system: MCF7 breast
[3] = test system: PC-3 prostate
[4] = test system: SNB-78 CNS
[5] = test system: RPMI-8226 leukemia
[6] = test system: M19-MEL melanoma
[7] = test system: XF 498 CNS
[8] = test system: HOP-18 NSCLC
[9] = test system: DMS 273 small cell lung
[10] = test system: RXF-631 renal
[11] = test system: KM20L2 colon
[12] = test system: LXFL 529 NSCLC
[13] = test system: DMS 114 small cell lung
[14] = test system: DLD-1 colon

Compound	TGI [1] [µM]	TGI [2] [µM]	TGI [3] [µM]	TGI [4] [µM]	TGI [5] [µM]	TGI [9] [µM]	other results
Cc1ccc(-c2cc(-c3ccc(Cl)cc3)nc(/N=C3\C(=O)N(CN4CCOCC4)c4ccccc43)n2)cc1	35	> 100	> 100	–	–	–	–
COC(=O)C(=O)C(C(=O)C1=NS(=O)(=O)c2cc(S(N)(=O)=O)c(Cl)cc2N1)c1nc2ccc(C(=O)c3ccccc3)cc2[nH]c1=O (stereo not drawn)	–	–	–	> 100	> 100	> 100	TGI [6]: > 100 µM; TGI [7]: > 100 µM; TGI [8]: > 100 µM; TGI [10]: > 100 µM; TGI [11]: > 100 µM; TGI [12]: > 100 µM
CC(N)C(=O)OCN1C(=O)C2C3C=CC(C2C1=O)C1C2C(=O)N(COC(=O)C(C)N)C(=O)C2C31 (stereo not drawn)	–	–	–	> 100	54.9	36.7	TGI [13]: 36.5 µM; TGI [6]: 40 µM; TGI [7]: 47.5 µM; TGI [8]: > 100 µM; TGI [14]: 54.4 µM; TGI [11]: 72.2 µM; TGI [12]: 60.8 µM
CCN1CCN(c2nc3ccccc3nc2C(=O)c2ccc(OC)cc2)CC1	> 100	58.8	> 100	–	43.7	–	–
C=C1C(=O)OC2/C=C(\C)C3OC3/C=C(/C(=O)OC)C(O)C(OC(=O)C3(C)OC3C)C12 (stereo not drawn)	–	–	–	3.97	–	3.02	TGI [13]: 1.94 µM; TGI [14]: 2.94 µM; TGI [12]: 2.8 µM
CS/C(C#N)=C(\C#N)SC	40.5	12.3	62.2	–	> 100	–	–
Cc1ccccc1[P+](C)(c1ccccc1C)c1ccccc1C	21	> 100	55.2	–	3.96	–	–
CN(C)CC1CCCC(CN2CCCCC2)C1=O (stereo not drawn)	31.1	2.62	29	23.9	1.29	54.9	TGI [13]: > 23.4 µM; TGI [6]: 34.7 µM; TGI [8]: 4.71 µM; TGI [14]: 8.92 µM; TGI [11]: 41.6 µM
[O-]c1c[n+](CCCC[n+]2cc([O-])on2)no1	> 100	> 100	> 100	–	> 100	–	–
CC1=C(C#N)C23C(=O)c4ccccc4C(O)=C2C(=O)C=CC3(O)N1 (stereo not drawn)	9.37	4.59	28.7	–	–	–	–
Cn1cc(-c2csc(-c3cn(C)c4ccc(Br)cc34)n2)c2cnccc21	3.22	3.43	3.02	–	–	–	GI50 [1]: 1.76 µM; GI50 [2]: 1.78 µM; GI50 [3]: 1.55 µM
Oc1cccc(-c2ccc3c4c2O[C@H]2c5[nH]c6ccccc6c5C[C@@]5(O)[C@@H](C3)N(CC3CC3)CC[C@]425)c1	3.1	–	3.44	–	–	–	–
Cc1cccc(O)c1-c1nnc(CCCCCCCCc2nnc(-c3c(C)cccc3O)n2N)n1N	> 100	> 100	> 100	–	> 100	–	–
O=c1oc2ccccc2n1P(=O)(n1c(=O)oc2ccccc21)n1c(=O)oc2ccccc21	–	–	–	> 100	–	> 100	TGI [13]: > 100 µM; TGI [6]: > 100 µM; TGI [7]: > 100 µM; TGI [14]: > 100 µM; TGI [10]: > 100 µM; TGI [11]: > 100 µM; TGI [12]: > 100 µM
